From patent US20130156845A1, “LIPID FORMULATED SINGLE STRANDED RNA” (ALNYLAM PHARMACEUTICALS, INC., priority 2010, published 2013)
Read-outs that look alike come from different tables or passages of the source. Strand notation (5' to 3'): a small letter for the sugar, then the base; units joined by * are phosphorothioate-linked, units joined directly phosphodiester-linked; [ ] holds rarer units or linkages, { } end groups; capitals alone tell only the bases. [Rc] = thymidine, 2',5'-bis modified nucleoside Rc; e = 2'-O-(2-methoxyethyl) (MOE); m = 2'-O-methyl; {P} = phosphate; f = 2'-fluoro

Experiments:
[1] = mouse, serum
Procedure: Single-stranded oligomeric compounds were tested for stability in mouse serum.

human PTEN = assay: PTEN expression in HeLa cells, ssRNAs vs siRNAs (Example 62); format: cell-based
Procedure: A series of 5′ and 2′ bis-substituted modified oligomeric compounds were prepared as single strand RNAs (ssRNAs). The antisense (AS) strands listed below were designed to target human PTEN, and each was also assayed as part of a duplex with the same sense strand (ISIS 341401, shown below) for their ability to reduce PTEN expression levels. HeLa cells were treated with the single stranded or double stranded oligomeric compounds created with the antisense compounds shown below using methods described herein. The IC50's were calculated using the linear regression equation generated by plotting the normalized mRNA levels to the log of the concentrations used.

PTEN [2] = assay: PTEN mRNA reduction in HeLa cells, dose response (Example 59); format: cell-based, human; conditions: percent inhibition of PTEN mRNA, real-time PCR normalized to RIBOGREEN, 0.20-50 nM
Procedure: When cells reached 65-75% confluency, they are treated with one or more oligomeric compounds. The oligomeric compound is mixed with LIPOFECTIN™ Invitrogen Life Technologies, Carlsbad, Calif.) in Opti-MEM™-1 reduced serum medium (Invitrogen Life Technologies, Carlsbad, Calif.) to achieve the desired concentration of the oligomeric compound(s) and a LIPOFECTIN™ concentration of 2.5 or 3 μg/mL per 100 nM oligomeric compound(s). This transfection mixture is incubated at room temperature for approximately 0.5 hours. For cells grown in 96-well plates, wells are washed once with 100 μL OPTI-MEM™-1 and then treated with 130 μL of the transfection mixture. Cells grown in 24-well plates or other standard tissue culture plates are treated similarly, using appropriate volumes of medium and oligomeric compound(s). […]
Quantitation of target mRNA levels is accomplished by real-time quantitative PCR using the ABI PRISM™ 7600, 7700, or 7900 Sequence Detection System (PE-Applied Biosystems, Foster City, Calif.) according to manufacturer's instructions. This is a closed-tube, non-gel-based, fluorescence detection system which allows high-throughput quantitation of polymerase chain reaction (PCR) products in real-time. As opposed to standard PCR in which amplification products are quantitated after the PCR is completed, products in real-time quantitative PCR are quantitated as they accumulate. […]

PTEN [3] = assay: PTEN mRNA reduction in HeLa cells, dose response (Example 69); format: cell-based, human; conditions: percent inhibition of PTEN mRNA, 0.067-50 nM
Procedure: In accordance with the present disclosure, oligomeric compounds were synthesized and tested for their ability to reduce PTEN expression over a range of doses. Human HeLa cells were treated with either ISIS 447581, 467074, 418046 or 467076. A dose comparison was evaluated with dose concentrations of 0.067, 0.2, 0.62, 1.9, 5.5, 16.7 and 50 nM using methods described herein. Expression levels of PTEN were determined using real-time PCR and normalized to RIBOGREEN™ using methods described herein. The percent inhibition of PTEN mRNA was determined and the resulting dose-response curves were used to determine the EC50. The EC50s are listed below.

A549 cells = assay: MicroRNA mimics: cell cycle assay; format: cell-based; conditions: RNAIMAX transfection, 0.1-100 nM, nocodazole, propidium iodide flow cytometry
Procedure: A cell cycle assay was used to evaluate the activity of microRNA mimics. A549 cells were plated at a density of approximately 45,000 cells per well of a 24-well plate. The following day, cells were transfected with microRNA mimics and control oligomeric compounds, using RNAIMAX as the transfection reagent. Oligomeric compounds were tested at concentrations ranging from 0.1 nM to 100 nM. Control oligomeric compounds were also tested. Approximately 24 hours following transfection, nocodazole was added to the cells at a concentration ranging from 0.5 to 2.0 μg/ml. Approximately 16 hours later, the cells were harvested, washed, ethanol-fixed and stained with propidium iodide. Cells cycle profiles were generated by subjecting the stained cells to flow cytometry (FACSCAN).

[4] = tested on: miR-34 seed-matched nucleic acids; assay: Microarray analysis of gene expression changes after miR-34 mimics; format: cell-based; conditions: microarray analysis of cells treated with miR-34 mimics
Description: In addition to measuring cell cycle progression, cells treated with miR-34 mimics were subjected to microarray analysis to compare the profile of gene expression changes following treatment with microRNA mimics.

Substance “5′-Ps-UdUfoGfoUfoCfoUfoCfoUfoGfoGfoUfoCfoCfoUfsUfsAfsCfsUfsUfsAesAe [ISIS 435395]” has a T1/2 full length [1] of 7.8 h.
Work on “P-TRcUfGmUfCmUfCmUfGmGfUmCfCmUfUmAfCmUfUmAeAe (antisense TUGUCUCUGGUCCUUACUUAA; sugars from the 5' end [Rc]fmfmfmfmfmfmfmfmfmee, 5' {P}, backbone not given here) [ISIS 447581, modified ssRNA targeting PTEN]” yielded an EC50 (human PTEN; antisense strand duplexed with sense strand ISIS 341401, PTEN mRNA, read-out: EC50 (nM) siRNA) of 0.4 nM, an EC50 (human PTEN; single stranded antisense compound, PTEN mRNA, read-out: EC50 (nM) ssRNA) of 1 nM and an EC50 (PTEN [2]) of 0.87 nM. The EC50 (PTEN [3]) was 0.6 nM.
In the case of “P-UmGfGfCfAfGfUfGfUmCmUfUfAmGmCfUfGfGfUfUfGfUfAeAe ({P}-mUfGfGfCfAfGfUfGmUmCfUfUmAmGfCfUfG*fG*fU*fU*fG*fU*eA*eA) [ss miR-34]”, the cell cycle phenotype (A549 cells) is reported as “blocking cells in the G1 phase of the cell cycle” and the “effect on miR-34 seed-matched nucleic acids” value [4] is reported as “down-regulated miR-34 seed-matched nucleic acids”.
